Each structure is given as a SMILES string. Counter-ions that a name gives are not always drawn.

The term IC50 denotes the point on the concentration scale where inhibition reaches its midpoint. Lower therefore signals higher potency.

The test addresses T1, N-type Ca2+ channel (Homo sapiens, UniProt Q00975).
T1 construct: host or cells: IMR-32 cells, differentiated with dibutyryl cAMP and bromodeoxyuridine
In words: Measurement of N-type Ca2+ channel blocking potencies in IMR-32 cells using the fluorescent Ca2+ indicator Indo-1. The settings on record: for inhibition at 1 µM / IMR 32 % of Blockade @ 1 μM: 1 μM compound; for inhibition at 1 µM: read-out: IMR 32 % of Blockade @ 1 μM; for inhibition at 10 µM / IMR 32 % of Blockade @ 10 μM: 10 μM compound; for inhibition at 10 µM: read-out: IMR 32 % of Blockade @ 10 μM; for IC50: K+-stimulated Ca2+ flux, 5 μM nitrendipine to block L-type channels. The class given is cell-based. The procedure:
Measurement of N-type Ca^2+ Channel Blocking Potencies of Compounds in IMR-32 Cells Using the Fluorescent Ca^2+Indicator Indo-1
IMR-32 cells are a human tumoral cell line of neural origin. […] Calcium flux into these cells may be induced by stimulation with elevated potassium concentrations. The L-channel component of calcium flux may be blocked by adding 5 μM nitrendipine. The remaining component of calcium entry into the IMR-32 cells is due to calcium flux through N-type calcium channels. Intracellular calcium concentrations are measured using the fluorescent calcium indicator Indo-1. The effect of drug concentration on calcium uptake is studied.
The IMR-32 cell line was obtained from the American Type Culture Collection (Rockville, Md.). Cells were grown in Eagle's Minimum Essential Medium with Earle's salts supplemented with 10% fetal bovine serum, 2 mM L-Gln and antibiotic/antimycotic mixture (Gibco). […] After 7 to 13 days of differentiation, cells were detached using 0.5 mM EDTA and loaded with 5 μM Indo-1 acetoxymethyl ester (Molecular Probes, Eugene, Oreg.) at 30° C. for 45 minutes. Loaded cells were washed twice, resuspended (˜10^7 cells/mL) in assay buffer (10 mM HEPES/Tris pH 7.4 in Hank's Balanced Salt Solution without bicarbonate or phenol red containing 0.5% bovine serum albumin) and kept on ice until use. Fluorescence measurements were carried out in a Photon Technology International (PTI, South Brunswick, N.J.) Model RF-F3004 spectrofluorometer with dual emission monochromators using excitation at […] and emission at 400 and 490 nm. The instrument was equipped with a thermostated cuvette holder with stirring capabilities as well as with a computer-controlled pump which allowed for reagent addition during measurement. Instrument control and data collection was done by PTI's OSCAR software running on an IBM compatible computer. Different concentrations of the test compounds (60 μL in dimethyl sulfoxide) were added to 5.94 mL of assay buffer containing approximately 3×10^6 loaded cells, and 5 μM Nitrendipine (in […] EtOH) to block L-type Ca^2+ channels. Samples were incubated for 10 minutes at 30° C. and then aliquoted into three 10×10 mm disposable acrylic cuvettes. Emission signals at 400 and 490 nm were acquired from each cuvette at 30° C. for 50 seconds. At 20 seconds after the start of reading, cells were depolarized by the addition of 160 μL of stimulation solution (1 M KCl, 68 mM CaCl2) to the cuvette via the computer-controlled pump. Ratio of dual emission signals (400 nm/490 nm), which is proportional to intracellular Ca^2+ concentration, was plotted against time, and the difference between maximal response after stimulation and basal value (before stimulation) was determined. Values obtained in this way were plotted as a function of drug concentration. IC50 values of test compounds were calculated by fitting a four-parameter logistic function to the data using the least squares method.
(In general: Calcium assays in cells follow changes in intracellular calcium, usually with a dye or a luminescent sensor.)

T1 sequence (Q00975 whole entry): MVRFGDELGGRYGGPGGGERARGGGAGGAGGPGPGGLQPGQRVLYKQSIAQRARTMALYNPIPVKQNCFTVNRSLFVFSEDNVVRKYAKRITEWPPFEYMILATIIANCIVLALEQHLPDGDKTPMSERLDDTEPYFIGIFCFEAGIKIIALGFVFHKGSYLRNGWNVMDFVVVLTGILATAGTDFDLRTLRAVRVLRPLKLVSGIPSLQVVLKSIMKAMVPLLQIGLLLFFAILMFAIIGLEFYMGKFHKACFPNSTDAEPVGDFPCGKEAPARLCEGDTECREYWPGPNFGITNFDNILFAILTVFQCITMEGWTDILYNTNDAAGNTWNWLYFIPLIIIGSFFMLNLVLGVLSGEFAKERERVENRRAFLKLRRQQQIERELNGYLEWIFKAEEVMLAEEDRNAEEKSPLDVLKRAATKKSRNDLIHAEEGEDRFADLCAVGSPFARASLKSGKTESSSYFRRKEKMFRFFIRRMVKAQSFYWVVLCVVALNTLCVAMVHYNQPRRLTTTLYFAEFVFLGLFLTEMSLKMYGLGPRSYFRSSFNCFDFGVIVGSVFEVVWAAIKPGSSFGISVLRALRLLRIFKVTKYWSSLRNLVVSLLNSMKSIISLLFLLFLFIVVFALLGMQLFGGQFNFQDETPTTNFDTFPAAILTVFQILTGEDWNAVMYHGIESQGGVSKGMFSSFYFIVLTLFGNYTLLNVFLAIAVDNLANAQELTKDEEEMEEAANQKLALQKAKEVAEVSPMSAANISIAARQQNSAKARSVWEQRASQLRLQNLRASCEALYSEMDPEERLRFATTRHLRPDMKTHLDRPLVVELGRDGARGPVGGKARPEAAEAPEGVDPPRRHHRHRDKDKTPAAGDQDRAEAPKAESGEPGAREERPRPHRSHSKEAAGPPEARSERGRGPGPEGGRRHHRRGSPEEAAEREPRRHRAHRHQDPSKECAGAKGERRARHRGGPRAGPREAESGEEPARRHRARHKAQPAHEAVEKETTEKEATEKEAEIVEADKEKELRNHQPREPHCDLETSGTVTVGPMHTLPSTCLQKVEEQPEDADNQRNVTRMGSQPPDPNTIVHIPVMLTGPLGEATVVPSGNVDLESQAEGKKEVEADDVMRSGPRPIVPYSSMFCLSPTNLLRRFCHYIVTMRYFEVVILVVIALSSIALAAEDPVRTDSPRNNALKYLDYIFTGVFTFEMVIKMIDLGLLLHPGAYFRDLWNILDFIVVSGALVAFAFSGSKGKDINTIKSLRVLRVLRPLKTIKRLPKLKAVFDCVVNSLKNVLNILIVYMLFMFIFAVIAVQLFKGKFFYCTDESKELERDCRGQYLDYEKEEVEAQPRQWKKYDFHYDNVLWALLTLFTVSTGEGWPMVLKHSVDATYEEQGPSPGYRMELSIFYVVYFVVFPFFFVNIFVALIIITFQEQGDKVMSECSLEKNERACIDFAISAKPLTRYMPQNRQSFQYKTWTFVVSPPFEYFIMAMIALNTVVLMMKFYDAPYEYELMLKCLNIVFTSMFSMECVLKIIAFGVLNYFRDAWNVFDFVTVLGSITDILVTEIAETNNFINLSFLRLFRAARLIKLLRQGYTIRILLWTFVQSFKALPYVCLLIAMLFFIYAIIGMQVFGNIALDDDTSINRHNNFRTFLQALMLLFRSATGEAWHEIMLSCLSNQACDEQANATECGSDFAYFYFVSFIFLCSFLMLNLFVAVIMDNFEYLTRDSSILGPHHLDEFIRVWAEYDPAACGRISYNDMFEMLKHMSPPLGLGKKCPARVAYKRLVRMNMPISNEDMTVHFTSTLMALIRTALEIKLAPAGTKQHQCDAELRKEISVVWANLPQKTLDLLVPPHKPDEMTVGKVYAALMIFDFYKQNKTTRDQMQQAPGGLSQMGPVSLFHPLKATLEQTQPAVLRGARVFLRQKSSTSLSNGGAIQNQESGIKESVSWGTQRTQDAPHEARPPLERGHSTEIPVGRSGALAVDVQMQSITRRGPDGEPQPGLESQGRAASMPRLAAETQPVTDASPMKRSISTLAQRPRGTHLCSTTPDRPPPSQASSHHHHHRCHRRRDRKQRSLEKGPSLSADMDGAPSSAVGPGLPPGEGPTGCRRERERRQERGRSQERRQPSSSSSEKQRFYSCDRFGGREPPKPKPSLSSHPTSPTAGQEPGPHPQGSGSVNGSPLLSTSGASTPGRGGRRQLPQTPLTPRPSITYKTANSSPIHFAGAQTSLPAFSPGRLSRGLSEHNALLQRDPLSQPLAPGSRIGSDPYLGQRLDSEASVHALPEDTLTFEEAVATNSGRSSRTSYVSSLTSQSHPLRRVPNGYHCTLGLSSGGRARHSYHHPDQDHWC
T1 sequence (P54289 25-956 partner limits assumed): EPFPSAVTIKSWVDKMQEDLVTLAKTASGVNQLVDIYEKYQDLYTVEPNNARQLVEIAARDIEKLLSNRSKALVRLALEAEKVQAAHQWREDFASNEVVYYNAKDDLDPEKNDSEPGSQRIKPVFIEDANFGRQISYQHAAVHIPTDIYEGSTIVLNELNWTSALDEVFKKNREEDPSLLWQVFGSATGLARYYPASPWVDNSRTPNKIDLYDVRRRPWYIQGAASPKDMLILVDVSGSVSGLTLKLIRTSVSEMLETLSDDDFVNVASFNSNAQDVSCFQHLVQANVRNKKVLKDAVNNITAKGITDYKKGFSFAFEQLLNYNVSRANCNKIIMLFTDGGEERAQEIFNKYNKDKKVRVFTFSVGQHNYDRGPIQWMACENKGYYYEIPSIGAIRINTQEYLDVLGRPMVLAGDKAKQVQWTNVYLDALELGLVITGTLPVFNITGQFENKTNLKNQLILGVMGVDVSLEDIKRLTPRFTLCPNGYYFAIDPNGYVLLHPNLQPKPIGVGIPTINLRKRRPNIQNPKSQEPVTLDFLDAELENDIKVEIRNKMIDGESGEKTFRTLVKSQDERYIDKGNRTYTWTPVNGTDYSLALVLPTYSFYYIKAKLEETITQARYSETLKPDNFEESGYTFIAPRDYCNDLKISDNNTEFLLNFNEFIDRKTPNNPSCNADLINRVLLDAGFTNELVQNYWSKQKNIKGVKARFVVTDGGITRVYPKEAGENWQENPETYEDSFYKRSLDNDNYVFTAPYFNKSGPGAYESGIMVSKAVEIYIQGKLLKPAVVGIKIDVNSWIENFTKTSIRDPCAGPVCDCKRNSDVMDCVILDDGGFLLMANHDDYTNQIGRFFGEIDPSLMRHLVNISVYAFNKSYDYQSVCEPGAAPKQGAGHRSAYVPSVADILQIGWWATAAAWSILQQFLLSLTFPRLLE
T1 sequence (P54289 957-1103 partner limits assumed): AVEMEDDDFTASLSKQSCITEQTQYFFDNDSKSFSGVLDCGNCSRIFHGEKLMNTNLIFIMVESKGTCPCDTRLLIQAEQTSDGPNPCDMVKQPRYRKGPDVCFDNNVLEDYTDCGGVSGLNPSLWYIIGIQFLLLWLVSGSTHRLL
T1 sequence (Q02641 whole entry partner): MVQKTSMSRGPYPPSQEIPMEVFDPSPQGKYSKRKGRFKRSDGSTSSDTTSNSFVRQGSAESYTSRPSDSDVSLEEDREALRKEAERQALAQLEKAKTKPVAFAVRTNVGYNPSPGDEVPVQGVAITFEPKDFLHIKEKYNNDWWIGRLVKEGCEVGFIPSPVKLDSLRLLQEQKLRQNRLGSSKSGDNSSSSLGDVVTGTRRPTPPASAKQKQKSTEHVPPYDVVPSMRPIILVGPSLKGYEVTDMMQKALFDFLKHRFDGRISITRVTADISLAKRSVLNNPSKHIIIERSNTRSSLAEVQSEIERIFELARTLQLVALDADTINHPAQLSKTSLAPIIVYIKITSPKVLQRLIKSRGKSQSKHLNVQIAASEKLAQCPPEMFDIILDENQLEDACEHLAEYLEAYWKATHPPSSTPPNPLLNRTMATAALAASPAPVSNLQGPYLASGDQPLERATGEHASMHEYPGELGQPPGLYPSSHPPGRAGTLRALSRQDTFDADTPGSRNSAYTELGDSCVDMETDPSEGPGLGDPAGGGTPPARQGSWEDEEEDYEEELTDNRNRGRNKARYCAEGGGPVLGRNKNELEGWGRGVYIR

For `CC(C)=CCN(c1ccc(OCc2ccccc2)cc1)C1CCCN(C(=O)[C@@H](N)CC(C)C)C1` (mixture of isomers) [Example 45, (S, R/S)-2-Amino-1-{3-[(4-benzyloxy-phenyl)-(3-methyl-but-2-enyl)-amino]-piperidin-1-yl}-4-methyl-pentan-1-one], under “5 μM nitrendipine”, the inhibition at 1 µM came out at 40% and the inhibition at 10 µM came out at 100%.
For `CC(C)=CCN(c1ccc(OCc2ccccc2)cc1)C1CCCN(C(=O)[C@H](CC(C)C)NC(=O)N2CCCCCC2)C1` (mixture of isomers) [Example 46, (S,R/S)-Azepane-1-carboxylic acid (1-{3-[(4-benzyloxy-phenyl)-(3-methyl-but-2-enyl)-amino]-piperidine-1-carbonyl}-3-methyl-butyl)-amide], in that order: 41% and 91%.
Turning to `CC(C)=CCN(C[C@H](C)NC(=O)[C@H](CC(C)C)NC(=O)N1CCCCCC1)c1ccc(OCc2ccccc2)cc1` (relative stereo) [Example 2, [S-(R*,R*)]-Azepane-1-carboxylic acid (1-{2-[(4-benzyloxy-phenyl)-(3-methyl-but-2-enyl)-amino]-1-methyl-ethylcarbamoyl}-3-methyl-butyl)-amide], the “IMR 32 % of Blockade @ 1 μM” value (5 μM nitrendipine) is listed as 50% @ 1.
For the molecule `CC(C)=CCN(C[C@H](C)NC(=O)[C@H](CC(C)C)N(C)C)c1ccc(OCc2ccccc2)cc1` (relative stereo) [Example 14, [S-(R*,R*)]-2-Dimethylamino-4-methyl-pentanoic acid {2-[(4-benzyloxy-phenyl)-(3-methyl-but-2-enyl)-amino]-1-methyl-ethyl}-amide], for the setting “5 μM nitrendipine”, the “IMR 32 % of Blockade @ 1 μM” value was found to be 36% and the “IMR 32 % of Blockade @ 10 μM” value is reported as 86%.
Take `CC(C)=CCN[C@@H](CC(C)C)C(=O)N[C@@H](C)CN(CC=C(C)C)c1ccc(OCc2ccccc2)cc1` (relative stereo) [Example 15, [S-(R*,R*)]-4-Methyl-2-(3-methyl-but-2-enylamino)-pentanoic acid {2-[(4-benzyloxy-phenyl)-(3-methyl-but-2-enyl)-amino]-1-methyl-ethyl}-amide]: the “IMR 32 % of Blockade @ 0.3 μM” value (0.3 μM compound, 5 μM nitrendipine) was determined as 21%. For the same molecule, the “IMR 32 % of Blockade @ 3 μM” value (3 μM compound, 5 μM nitrendipine) is listed as 65%.
In the case of `CC(C)=CCN(C[C@H](C)NC(=O)[C@H](CC(C)C)NCCC(C)C)c1ccc(OCc2ccccc2)cc1` (relative stereo) [Example 16, [S-(R*,R*)]-4-Methyl-2-(3-methyl-butylamino)-pentanoic acid {2-[(4-benzyloxy-phenyl)-(3-methyl-but-2-enyl)-amino]-1-methyl-ethyl}-amide], under “5 μM nitrendipine”, the “IMR 32 % of Blockade @ 1 μM” value is given as 36% and the “IMR 32 % of Blockade @ 10 μM” value is reported as 86%.
For `CC(C)=CCN(C[C@H](C)NC(=O)[C@H](CC(C)C)N(CCC(C)C)CCC(C)C)c1ccc(OCc2ccccc2)cc1` (relative stereo) [Example 18, [S-(R*,R*)]-2-[Bis-(3-methyl-butyl)-amino]-4-methyl-pentanoic acid {2-[(4-benzyloxy-phenyl)-(3-methyl-but-2-enyl)-amino]-1-methyl-ethyl}-amide] the same measures were 67% and 71%.
For `CC(C)=CCN(C[C@H](C)NC(=O)[C@H](CC(C)C)N(CC=C(C)C)CC=C(C)C)c1ccc(OCc2ccccc2)cc1` (relative stereo) [Example 19, [S-(R*,R*)]-2-{Bis]-(3-methyl-but-2-enylamino)-4-Methyl-pentanoic acid {2-[(4-benzyloxy-phenyl)-(3-methyl-but-2-enyl)-amino]-1-methyl-ethyl 1-amide] the same measures were 74% and 70%.
For `CC(C)=CCN(c1ccc(C#CC2(O)CCCCC2)cc1)C1CCN(C(=O)C(CC(C)C)NC(=O)N2CCCCCC2)CC1` (stereo in doubt) [Example 43, (S)-Azepane-1-carboxylic acid (1-{4-[[4-(1-hydroxy-cyclohexylethynyl)-phenyl]-(3-methyl-but-2-enyl)-amino]-piperidine-1-carbonyl}-3-methyl-butyl)-amide], the IC50 turned out to be 3.4 µM. In other words, the single-digit micromolar range.
The molecule `CC(C)=CCN(c1ccc(OCc2ccccc2)cc1)C1CCN(C(=O)[C@H](CC(C)C)NC(=O)N2CCCCCC2)CC1` [Example 5, (S)-Azepane-1-carboxylic acid (1-{4-[(4-benzyloxy-phenyl)-(3-methyl-but-2-enyl)-amino]-piperidine-1-carbonyl}-3-methyl-butyl)-amide hydrochloride salt] registered an IC50 of 0.5 µM.
Regarding `CC(C)C[C@H](NC(=O)N1CCCCCC1)C(=O)NC(C)(C)CN(c1ccc(OCc2ccccc2)cc1)C1C=CCCC1` (stereo partly drawn) [Example 8, (S)-Azepane-1-carboxylic acid (1-{2-[(4-benzyloxy-phenyl)-cyclohex-2-enyl-amino]-1,1-dimethyl-ethylcarbamoyl}-3-methyl-butyl)-amide], under “5 μM nitrendipine”, the inhibition at 1 µM was determined as 55% and the inhibition at 10 µM amounted to 76%.
`CC(C)=CCN(CC(C)(C)NC(=O)[C@H](CC(C)C)N(C)C)c1ccc(OCc2ccccc2)cc1` [Example 9, (S)-2-Dimethylamino-4-methyl-pentanoic acid {2-[(4-benzyloxy-phenyl)-(3-methyl-but-2-enyl)-amino]-1,1-dimethyl-ethyl}-amide] yielded a half-maximal inhibitory concentration (IC50) of 1.6 µM. This lies in the single-digit micromolar range.
In the case of `CC(C)=CCN(CC(C)(C)NC(=O)[C@H](CC(C)C)N(C)CCC(C)C)c1ccc(OCc2ccccc2)cc1` [Example 11, (S)-4-Methyl-2-[methyl-(3-methyl-butyl)-amino]-pentanoic acid {2-[(4-benzyloxy-phenyl)-(3-methyl-but-2-enyl)-amino]-1.1-dimethyl-ethyl}-amide], for the setting “5 μM nitrendipine”, the “IMR 32 % of Blockade @ 1 μM” value is reported as 49% and the “IMR 32 % of Blockade @ 10 μM” value is recorded as 91%.
In turn, `CC(C)=CCN(CC(C)(C)NC(=O)[C@H](CC(C)C)N(C)C1C=CCCC1)c1ccc(OCc2ccccc2)cc1` (stereo partly drawn) [Example 12, (S)-2-(Cyclohex-2-enyl-methyl-amino)-4-methyl-pentanoic acid {2-[(4-benzyloxy-phenyl)-(3-methyl-but-2-enyl)-amino]-1,1-dimethyl-ethyl}-amide] yielded a 50% inhibitory concentration (IC50) of 0.63 µM.
On the same count and under the same terms, to `CC(C)=CCN(CC(C)(C)NC(=O)[C@H](CC(C)C)N(C)Cc1ccc(C(C)(C)C)cc1)c1ccc(OCc2ccccc2)cc1` [Example 13, (S)-2-[(4-tert-Butyl-benzyl)-methyl-amino]-4-methyl-pentanoic acid {2-[(4-benzyloxy-phenyl)-(3-methyl-but-2-enyl)-amino]-1.1-dimethyl-ethyl}-amide] belongs 5.6 µM.
As for `CC(C)CCN(C)[C@@H](CC(C)C)C(=O)NC(C)(C)CN(c1ccc(OCc2ccccc2)cc1)C1C=CCCC1` (stereo partly drawn) [Example 17, (S)-4-Methyl-2-[methyl-(3-methyl-butyl)-amino]-pentanoic acid {2-[(4-benzyloxy-phenyl)-cyclohex-2-enyl-amino]-1,1-dimethyl-ethyl}-amide], for the setting “5 μM nitrendipine”, the inhibition at 1 µM was 57% and the inhibition at 10 µM stood at 80%.
For `CC(C)=CCN(c1ccc(OCc2ccccc2)cc1)C1CCN(C(=O)[C@H](N)CC(C)C)CC1` [Example 21, (R)-2-Amino-1-{4-[(4-benzyloxy-phenyl)-(3-methyl-but-2-enyl)-amino]-piperidin-1-yl}-4-methyl-pentan-1-one], in that order: 43% and 92%.

The record behind these values is patent publication US6495715B2, “Calcium channel blockers” (Warner-Lambert Company, priority 1997, dated 2002).
